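Values below derive from 48-hour exposures of cells grown in 96-well plates, with endpoints linearly interpolated between the two concentrations bracketing the appropriate inhibition level. The concentration for full growth arrest is given as TGI.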
Columns and labels:
Experiment in all cases: DTP human tumour cell line panel, 48 h
[1] = test system: 786-0 renal
[2] = test system: A498 renal
[3] = test system: A549 NSCLC
[4] = test system: ACHN renal
[5] = test system: BT-549 breast
[6] = test system: CAKI-1 renal
[7] = test system: CCRF-CEM leukemia
[8] = test system: COLO 205 colon
[9] = test system: DU-145 prostate
[10] = test system: HCC-2998 colon
[11] = test system: HCT-116 colon
[12] = test system: HCT-15 colon
[13] = test system: HL-60(TB) leukemia
[14] = test system: HOP-62 NSCLC
[15] = test system: HOP-92 NSCLC
[16] = test system: HS 578T breast
[17] = test system: HT29 colon
[18] = test system: IGROV1 ovarian
[19] = test system: K-562 leukemia
[20] = test system: KM12 colon
[21] = test system: LOX IMVI melanoma
[22] = test system: M14 melanoma
[23] = test system: MALME-3M melanoma
[24] = test system: MCF7 breast
[25] = test system: MDA-MB-231 breast
[26] = test system: MDA-MB-435
[27] = test system: MDA-N
[28] = test system: MOLT-4 leukemia
[29] = test system: NCI-H226 lung
[30] = test system: NCI-H23 lung
[31] = test system: NCI-H460 lung
[32] = test system: NCI-H522 lung
[33] = test system: NCI/ADR-RES ovarian
[34] = test system: OVCAR-3 ovarian
[35] = test system: OVCAR-4 ovarian
[36] = test system: OVCAR-5 ovarian
[37] = test system: OVCAR-8 ovarian
[38] = test system: PC-3 prostate
[39] = test system: RPMI-8226 leukemia
[40] = test system: RXF 393 renal
[41] = test system: SF-268 CNS
[42] = test system: SF-295 CNS
[43] = test system: SF-539 CNS
[44] = test system: SK-MEL-2 melanoma
[45] = test system: SK-MEL-28 melanoma
[46] = test system: SK-MEL-5 melanoma
[47] = test system: SN12C renal
[48] = test system: SNB-19 CNS
[49] = test system: SNB-75 CNS
[50] = test system: SR leukemia
[51] = test system: T-47D breast
[52] = test system: TK-10 renal
[53] = test system: U251 CNS
[54] = test system: UACC-257 melanoma
[55] = test system: UACC-62 melanoma
[56] = test system: UO-31 renal
[57] = test system: EKVX NSCLC
[58] = test system: SK-OV-3 ovarian
[59] = test system: SW-620 colon

## CC(=O)OCC1OC(n2c3c(cc(C#N)c2=O)CCCCCC3)C(OC(C)=O)C(OC(C)=O)C1OC(C)=O (centres undefined)
[1]
  TGI: > 100 µM
[2]
  TGI: > 100 µM
[3]
  TGI: > 100 µM
[4]
  TGI: > 100 µM
[5]
  TGI: > 100 µM
[6]
  TGI: > 100 µM
[7]
  TGI: > 100 µM
[8]
  TGI: > 100 µM
[9]
  TGI: > 100 µM
[10]
  TGI: > 100 µM
[11]
  TGI: > 100 µM
[12]
  TGI: > 100 µM
[13]
  TGI: > 100 µM
[14]
  TGI: > 100 µM
[15]
  TGI: > 100 µM
[16]
  TGI: > 100 µM
[17]
  TGI: > 100 µM
[18]
  TGI: > 100 µM
[19]
  TGI: > 100 µM
[20]
  TGI: > 100 µM
[21]
  TGI: > 100 µM
[22]
  TGI: > 100 µM
[23]
  TGI: > 100 µM
[24]
  TGI: > 100 µM
[25]
  TGI: > 100 µM
[26]
  TGI: > 100 µM
[27]
  TGI: > 100 µM
[28]
  TGI: > 100 µM
[29]
  TGI: > 100 µM
[30]
  TGI: > 100 µM
[31]
  TGI: > 100 µM
[32]
  TGI: > 100 µM
[33]
  TGI: > 100 µM
[34]
  TGI: > 100 µM
[35]
  TGI: > 100 µM
[36]
  TGI: > 100 µM
[37]
  TGI: > 100 µM
[38]
  TGI: > 100 µM
[39]
  TGI: > 100 µM
[40]
  TGI: > 100 µM
[41]
  TGI: > 100 µM
[42]
  TGI: > 100 µM
[43]
  TGI: > 100 µM
[44]
  TGI: > 100 µM
[45]
  TGI: > 100 µM
[46]
  TGI: > 100 µM
[47]
  TGI: > 100 µM
[48]
  TGI: > 100 µM
[49]
  TGI: > 100 µM
[50]
  TGI: > 100 µM
[51]
  TGI: 90.3 µM
[52]
  TGI: > 100 µM
[53]
  TGI: > 100 µM
[54]
  TGI: > 100 µM
[55]
  TGI: > 100 µM
[56]
  TGI: > 100 µM

## Nc1nc(Cl)nc(NCc2ccccc2)n1
[1]
  TGI: > 100 µM
[2]
  TGI: > 100 µM
[3]
  TGI: > 100 µM
[4]
  TGI: > 100 µM
[5]
  TGI: > 100 µM
[6]
  TGI: > 100 µM
[7]
  TGI: > 100 µM
[8]
  TGI: > 100 µM
[9]
  TGI: > 100 µM
[57]
  TGI: > 100 µM
[10]
  TGI: > 100 µM
[11]
  TGI: > 100 µM
[12]
  TGI: > 100 µM
[13]
  TGI: > 100 µM
[14]
  TGI: > 100 µM
[15]
  TGI: > 100 µM
[16]
  TGI: > 100 µM
[17]
  TGI: > 100 µM
[18]
  TGI: > 100 µM
[19]
  TGI: > 100 µM
[20]
  TGI: > 100 µM
[21]
  TGI: > 100 µM
[22]
  TGI: > 100 µM
[23]
  TGI: > 100 µM
[24]
  TGI: > 100 µM
[25]
  TGI: > 100 µM
[26]
  TGI: > 100 µM
[27]
  TGI: > 100 µM
[28]
  TGI: > 100 µM
[29]
  TGI: > 100 µM
[30]
  TGI: > 100 µM
[31]
  TGI: > 100 µM
[33]
  TGI: > 100 µM
[34]
  TGI: > 100 µM
[35]
  TGI: > 100 µM
[36]
  TGI: > 100 µM
[37]
  TGI: > 100 µM
[38]
  TGI: > 100 µM
[39]
  TGI: > 100 µM
[40]
  TGI: > 100 µM
[41]
  TGI: > 100 µM
[42]
  TGI: > 100 µM
[43]
  TGI: > 100 µM
[44]
  TGI: > 100 µM
[45]
  TGI: > 100 µM
[46]
  TGI: > 100 µM
[58]
  TGI: > 100 µM
[47]
  TGI: > 100 µM
[48]
  TGI: > 100 µM
[49]
  TGI: > 100 µM
[50]
  TGI: > 100 µM
[59]
  TGI: > 100 µM
[51]
  TGI: > 100 µM
[52]
  TGI: > 100 µM
[53]
  TGI: > 100 µM
[54]
  TGI: > 100 µM
[55]
  TGI: > 100 µM

## O=C(N=Nc1c(O)[nH]c2ccccc12)C(O)(c1ccccc1)c1ccccc1
[1]
  TGI: > 100 µM
[2]
  TGI: 36 µM
[3]
  TGI: 42.1 µM
[4]
  TGI: > 100 µM
[5]
  TGI: 28.9 µM
[6]
  TGI: > 100 µM
[7]
  TGI: > 100 µM
[8]
  TGI: 33.3 µM
[9]
  TGI: 73.9 µM
[57]
  TGI: > 100 µM
[10]
  TGI: 27.9 µM
[11]
  TGI: 37.5 µM
[12]
  TGI: 30.3 µM
[13]
  TGI: 69 µM
[15]
  TGI: 49.7 µM
[16]
  TGI: 66.6 µM
[17]
  TGI: 37.2 µM
[18]
  TGI: 39.6 µM
[19]
  TGI: 89.8 µM
[20]
  TGI: 35.4 µM
[21]
  TGI: 31.4 µM
[22]
  TGI: 30.4 µM
[23]
  TGI: 46.5 µM
[24]
  TGI: 56.4 µM
[25]
  TGI: 35.5 µM
[26]
  TGI: 31.8 µM
[27]
  TGI: 34 µM
[28]
  TGI: > 100 µM
[29]
  TGI: 43.8 µM
[30]
  TGI: 30.1 µM
[31]
  TGI: 34.7 µM
[33]
  TGI: 84.6 µM
[34]
  TGI: 36.3 µM
[35]
  TGI: 50.9 µM
[36]
  TGI: 31.5 µM
[37]
  TGI: 67.3 µM
[38]
  TGI: 38.5 µM
[39]
  TGI: 62 µM
[40]
  TGI: 28.3 µM
[41]
  TGI: 87.9 µM
[42]
  TGI: 36.3 µM
[43]
  TGI: 29.6 µM
[44]
  TGI: 31.8 µM
[45]
  TGI: 33.9 µM
[46]
  TGI: 29.7 µM
[58]
  TGI: 56.6 µM
[48]
  TGI: 34.2 µM
[49]
  TGI: 43.6 µM
[50]
  TGI: 79.4 µM
[59]
  TGI: 34 µM
[51]
  TGI: 68.8 µM
[52]
  TGI: 99.3 µM
[53]
  TGI: 35.3 µM
[54]
  TGI: 56.3 µM
[55]
  TGI: 30.1 µM
[56]
  TGI: 29.8 µM
